Test results published in patent US20050282239A1, “Cell-permeable enzyme activation reporter that can be loaded in a high throughput and gentle manner” (priority 2003, published 2005).
Ends that are not written are not given here.

Tests used:
recombinant CamKII = molecular target: T1, recombinant CamKII (Rattus norvegicus, UniProt P11275); assay: In vitro kinase assay, 32P phosphate incorporation; format: biochemical; conditions: peptides 5-60 μM, 30° C., 30 minutes
T1 construct: purchased Calbiochem (San Diego, Calif.) / EMD Biosciences (San Diego, Calif.)
Description: In addition to assessing the electrophoretic behavior of F-CamKII-TAT, the ability of this conjugated sequence to act as an efficient substrate for the CamKII enzyme was characterized. The amount of phosphate incorporated into the substrate peptide alone and into F-CamKII-TAT by CamKII was measured in vitro. In the range of measured peptide concentrations, 90% less phosphate was incorporated by the CamKII enzyme into F-CamKII-TAT compared to the peptide lacking the TAT(49-57) sequence. The kinetic properties of CamKII enzyme for the CamKII peptide substrate were degraded when the peptide was conjugated to TAT(49-57).
Peptides (5-60 μM) were phosphorylated in vitro by 100 units of recombinant CamKII (EMD Biosciences; San Diego, Calif.) in 20 mM Tris-HCl, 10 mM MgCl2, 0.5 mM dithiothreitol (DTT), and 0.1 mM Ethylenediaminetetraacetic acid-(EDTA, pH 7.5) with […], 2 mM CaCl2 and […] [[…]-^32P]-ATP. The final specific activity of the [[…]-^32P]-ATP was 100 cpm/pmole; the total reaction volume was 25 μL. The mixture was incubated at 30° C. for 30 minutes. The reaction was stopped by adding 45 μL ice-cold 10% (v/v) trichloroacetic acid, mixed with a vortex, centrifuged, and blotted onto P81 phosphocellulose paper. Phosphate incorporation was quantified with a liquid scintillation counter (LS 3801; Beckman Instruments; Irvine, Calif.)

cells = assay: Confocal microscopy of conjugate uptake; format: cell-based; conditions: same concentration for all conjugates
Description: The ability of the D- and L-arginine polymers to enhance trans-membrane transport was confirmed by confocal microscopy (see FIGS. 6A-F and Example 4).

Jurkat cells = assay: Michaelis-Menten kinetics of cellular uptake; format: cell-based, human; conditions: 4° C. (on ice), Lineweaver-Burk plots, incubation 30-240 seconds
Description: When cellular uptake of polymers of D- and L-arginine were analyzed by Michaelis-Menten kinetics (see Example 6), the rate of uptake by Jurkat cells was so efficient that precise Km values could only be obtained when the assays were carried out at 4° C. (on ice). Both the maximal rate of transport (Vmax) and the apparent affinity of the peptides for the putative receptor of the Michaelis constant (Km) were derived from Lineweaver-Burk plots of the observed fluorescence of Jurkat cells after incubation with varying concentrations of nonamers of D- and L-arginine for 30, 60, 120, and 240 seconds.

| Substance | less phosphate incorporated by CamKII compared to the peptide lacking the TAT(49-57) sequence (recombinant CamKII) [%] | fluorescence of cytosol by confocal microscopy (cells) | Km (Jurkat cells) [µM] | Vmax (Jurkat cells) [µM/s] |
| --- | --- | --- | --- | --- |
| Lys Lys Ala Leu His Arg Gln Glu Thr Val Asp Ala Leu Arg Lys Lys Arg Arg Gln Arg Arg Arg (KKALHRQETVDALRKKRRQRRR-NH2; not fully specified (N-terminus); printed as Lys Lys Ala Leu His Arg Gln Glu Thr Val Asp Ala Leu Arg Lys Lys Arg Arg Gln Arg Arg Arg; also: fluorescein label, position not given here) [F-CamKII-TAT, F-CamKII conjugated to TAT(49-57) through a peptide bond] | 90 |  |  |  |
| RKKRRQRRR [TAT(49-57), basic region of HIV TAT protein, residues 49-57] |  | only weak staining | 722 | 0.38 |
